Measurements published in patent US9708336B2, “Metallo-beta-lactamase inhibitors” (priority 2014, dated 2017).
pIC50: −log10 of the molar value. Where two headings read alike, the source gives them in different places.

Tests used:
[1] = target: NDM-1 (Klebsiella pneumoniae, UniProt C7C422); assay: biochemical; format: biochemical; conditions: read-out: NDM-1 IC50
[2] = target: IMP-1 (Serratia marcescens, UniProt P52699); assay: biochemical; format: biochemical; conditions: read-out: IMP-1 IC50
[3] = target: VIM-1 (Pseudomonas aeruginosa (strain ATCC 15692 / DSM 22644 / CIP 104116 / JCM 14847 / LMG 12228 / 1C / PRS 101 / PAO1), UniProt A0A0F7KYQ8); assay: Enzyme activity: determination of IC50, fluorescence assay with CCF2-FA substrate (VIM-1); format: biochemical
[4] = tested on: Escherichia coli expressing NDM-1 (CLB30016); assay: Antibiotic potentiation activity: synergistic concentration (MITC95) with imipenem, OD600 growth; format: cell-based
In short: (§1)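 Compound activity is tested with and without imipenem, which is present at 4 μg/ml (or 1 μg/ml) in the well. Bacteria in 1.1× CAMHB are incubated 22–24 h at 35 °C; absorbance gives the growth endpoint.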

[5] = tested on: Klebsiella pneumoniae expressing VIM-1 (IHMA599644); assay: as above; format: cell-based
In short: as §1

[6] = tested on: Serratia marcescens expressing IMP-1 (CL5741); assay: as above; format: cell-based
In short: as §1

[7] = fluorescence assay with CCF2-FA substrate
[8] = VIM-1 IC50, fluorescence assay with CCF2-FA substrate
[9] = NDM-1 enzyme, CCF2-FA fluorescence assay
[10] = IMP-1 enzyme, CCF2-FA fluorescence assay
[11] = VIM-1 enzyme, CCF2-FA fluorescence assay, read-out: VIM-1 IC50
[12] = Escherichia coli expressing NDM-1 (CLB30016), 95% growth inhibition
[13] = Klebsiella pneumoniae expressing VIM-1 (IHMA599644), 95% growth inhibition
[14] = Serratia marcescens expressing IMP-1 (CL5741), 95% growth inhibition
[15] = NDM-1 enzyme, CCF2-FA substrate
[16] = IMP-1 enzyme, CCF2-FA substrate
[17] = VIM-1 enzyme, CCF2-FA substrate, read-out: VIM-1 IC50
[18] = (CLB30016, NDM-1), 95% growth inhibition
[19] = Klebsiella pneumoniae IHMA599644 (VIM-1), 95% growth inhibition
[20] = Serratia marcescens CL5741 (IMP-1), 95% growth inhibition
[21] = concentration giving 95% inhibition of bacterial growth

Chain of NDM-1 (C7C422 whole entry, looked up, species assumed): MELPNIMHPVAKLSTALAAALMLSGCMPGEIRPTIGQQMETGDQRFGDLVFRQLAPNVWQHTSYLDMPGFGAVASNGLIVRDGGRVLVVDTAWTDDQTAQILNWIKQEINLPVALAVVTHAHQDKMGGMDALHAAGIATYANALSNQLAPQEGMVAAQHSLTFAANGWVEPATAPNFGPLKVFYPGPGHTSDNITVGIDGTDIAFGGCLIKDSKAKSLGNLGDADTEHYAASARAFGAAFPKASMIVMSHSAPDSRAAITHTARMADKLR
Chain of IMP-1 (P52699 whole entry, looked up): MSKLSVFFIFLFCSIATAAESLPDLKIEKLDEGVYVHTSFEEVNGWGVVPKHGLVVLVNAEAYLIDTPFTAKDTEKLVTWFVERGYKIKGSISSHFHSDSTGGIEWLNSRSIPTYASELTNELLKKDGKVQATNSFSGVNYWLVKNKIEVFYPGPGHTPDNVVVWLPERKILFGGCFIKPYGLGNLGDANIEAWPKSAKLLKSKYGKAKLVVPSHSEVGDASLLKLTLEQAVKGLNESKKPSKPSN

| SMILES | pIC50 [1, 9] | pIC50 [2, 10] | pIC50 [3, 11] | Escherichia coli MITC95 [4, 12] [µM] | Klebsiella pneumoniae MITC95 [5, 13] [µM] | Serratia marcescens MITC95 [6, 14] [µM] | pIC50 [1, 15] | pIC50 [2, 16] | Escherichia coli MITC95 [4, 18] [µM] | Klebsiella pneumoniae MITC95 [5, 19] [µM] | Serratia marcescens MITC95 [6, 20] [µM] | other results |
| --- | --- | --- | --- | --- | --- | --- | --- | --- | --- | --- | --- | --- |
| NS(=O)(=O)c1c(C(F)(F)F)ccc(-c2ccc(C3CCN(C4CC5CCC4N5)CC3)cc2)c1-c1nnn[nH]1 (stereo not drawn) [Example 788, 4′-[1-(7-azabicyclo[2.2.1]hept-2-yl)piperidin-4-yl]-2-(1H-tetrazol-5-yl)-4-(trifluoromethyl)biphenyl-3-sulfonamide] | – | – | – | – | – | – | – | – | – | – | – | pIC50 [1, 7]: 8.55; pIC50 [2, 7]: 9.36; pIC50 [3, 8]: 7.45; Escherichia coli MITC95 ([4]; CLB30016 (NDM-1), 95% inhibition of bacterial growth): 6.25 µM; Klebsiella pneumoniae MITC95 ([5]; IHMA599644 (VIM-1), 95% inhibition of bacterial growth): >200 µM; Serratia marcescens MITC95 ([6]; CL5741 (IMP-1), 95% inhibition of bacterial growth): 6.25 µM |
| NS(=O)(=O)c1c(CC2CCNCC2(F)F)ccc(-c2ccc(C3CCNCC3)cc2)c1-c1nn[nH]n1 (stereo not drawn) [Example 465, 4-((3,3-difluoropiperidin-4-yl)methyl)-4′-(piperidin-4-yl)-2-(2H-tetrazol-5-yl)-[1,1′-biphenyl]-3-sulfonamide] | 8.57 | 8.48 | 8.79 | 3.125 | 12.5 | 3.125 | – | – | – | – | – | – |
| NS(=O)(=O)c1c(C(F)(F)F)ccc(N2CC3C(CO)C3C2)c1-c1nnn[nH]1 (stereo not drawn) [Example 658, 3-[6-(hydroxymethyl)-3-azabicyclo[3.1.0]hex-3-yl]-2-(1H-tetrazol-5-yl)-6-(trifluoromethyl)benzenesulfonamide] | – | – | – | – | – | – | 8.29 | 8.16 | 2.344 | 12.5 | 0.7813 | pIC50 [3, 17]: 8.28 |
| NC(=O)C1CCN(Cc2ccc(-c3cccc(S(N)(=O)=O)c3-c3nnn[nH]3)cc2)C1 (stereo not drawn) [Example 337, 1-((3′-sulfamoyl-2′-(1H-tetrazol-5-yl)-[1,1′-biphenyl]-4-yl)methyl)pyrrolidine-3-carboxamide] | 8.36 | 7.16 | 6.49 | 0.3906 | 75 | 2.344 | – | – | – | – | – | – |
| NS(=O)(=O)c1cccc(-c2ccc(CNCCN3CCCC3)cc2)c1-c1nn[nH]n1 [Example 328, 4′-(((2-(pyrrolidin-1-yl)ethyl)amino)methyl)-2-(2H-tetrazol-5-yl)-[1,1′-biphenyl]-3-sulfonamide] | 7.69 | 6.49 | 6.32 | 1.563 | 125 | 6.25 | – | – | – | – | – | – |
| NS(=O)(=O)c1cccc(-c2csc(-c3ccncc3)n2)c1-c1nnn[nH]1 [Example 409, 3-[2-(4-pyridyl)thiazol-4-yl]-2-(1H-tetrazol-5-yl)benzenesulfonamide] | 7.57 | 6.35 | 6.63 | 1.563 | >200 | 12.5 | – | – | – | – | – | – |
| NS(=O)(=O)c1c(C(F)(F)F)ccc(-c2ccc(C3CNC3)cc2)c1-c1nn[nH]n1 [Example 433, 4′-(azetidin-3-yl)-2-(2H-tetrazol-5-yl)-4-(trifluoromethyl)-[1,1′-biphenyl]-3-sulfonamide] | 9.06 | 9.25 | 9.01 | 0.6406 | 0.7656 | 0.1875 | – | – | – | – | – | – |
| NS(=O)(=O)c1cccc(-c2ccc(CNC(CO)CO)cc2)c1-c1nnn[nH]1 [Example 374, 4′-({[2-hydroxy-1-(hydroxymethyl)ethyl]amino}methyl)-2-(1H-tetrazol-5-yl)biphenyl-3-sulfonamide] | 7.80 | 6.58 | 6.56 | 0.7813 | 37.5 | 3.125 | – | – | – | – | – | – |
| NS(=O)(=O)c1c(C2CC2)ccc(-c2ccnc3ccccc23)c1-c1nn[nH]n1 [Example 275, 6-cyclopropyl-3-(quinolin-4-yl)-2-(2H-tetrazol-5-yl)benzenesulfonamide] | 8.43 | 8.17 | 9.20 | 3.125 | 9.375 | 0.7813 | – | – | – | – | – | – |
| NS(=O)(=O)c1c(C(F)(F)F)ccc(-c2ccc(C3CCN(CC4CCNCC4)CC3)cc2)c1-c1nnn[nH]1 [Example 668, 4′-[1-(piperidin-4-ylmethyl)piperidin-4-yl]-2-(1H-tetrazol-5-yl)-4-(trifluoromethyl)biphenyl-3-sulfonamide] | – | – | – | – | – | – | 8.03 | 8.55 | 1.563 | 50 | 3.125 | pIC50 [3, 17]: 8.15 |
| NC(=O)c1ccc2cc(-c3cccc(S(N)(=O)=O)c3-c3nn[nH]n3)ccc2n1 [Example 288, 6-(3-sulfamoyl-2-(2H-tetrazol-5-yl)phenyl)quinoline-2-carboxamide] | 8.88 | 7.05 | 8.01 | 1.563 | 75 | 9.375 | – | – | – | – | – | – |
| Nc1ccc(-c2ccc(CC3CCNCC3)c(S(N)(=O)=O)c2-c2nnn[nH]2)cn1 [Example 576, 3-(6-amino-3-pyridyl)-6-(4-piperidylmethyl)-2-(1H-tetrazol-5-yl)benzenesulfonamide] | – | – | – | – | – | – | 7.91 | 6.78 | 0.5969 | 4.24 | 6.323 | pIC50 ([3]; VIM-1 IC50, VIM-1 enzyme, CCF2-FA substrate): 7.61 |
| NCCNc1nc2c(-c3cccc(S(N)(=O)=O)c3-c3nn[nH]n3)cccc2s1 [Example 639, 3-[2-(2-aminoethylamino)-1,3-benzothiazol-4-yl]-2-(2H-tetrazol-5-yl)benzenesulfonamide] | – | – | – | – | – | – | 8.70 | 6.73 | 1.563 | 6.25 | 25 | pIC50 [3, 17]: 7.98 |
| NC(=O)c1cc2cccc(-c3ccc(C(F)(F)F)c(S(N)(=O)=O)c3-c3nn[nH]n3)c2[nH]1 [Example 528, 7-(3-Sulfamoyl-2-(2H-tetrazol-5-yl)-4-(trifluoromethyl)phenyl)-1H-indole-2-carboxamide] | – | – | – | – | – | – | 10.61 | 9.37 | 1.563 | 12.5 | 3.125 | pIC50 [3, 17]: 9.84 |
| C[C@@H](O)[C@H](NCc1ccc(-c2cccc(S(N)(=O)=O)c2-c2nnn[nH]2)cc1)C(=O)O [Example 357, N-{[3′-sulfamoyl-2′-(1H-tetrazol-5-yl)biphenyl-4-yl]methyl}-L-threonine] | 7.90 | 6.74 | 6.54 | 3.125 | 25 | 4.688 | – | – | – | – | – | – |
| NS(=O)(=O)c1nccc(N2CCC(c3ccncc3)CC2)c1-c1nnn[nH]1 [Example 217, 4-(4-pyridin-4-ylpiperidin-1-yl)-3-(1H-tetrazol-5-yl)pyridine-2-sulfonamide] | – | – | – | – | – | – | – | – | – | – | – | pIC50 [1, 7]: 7.37; pIC50 [2, 7]: 6.32; pIC50 [3, 8]: 7.31; Escherichia coli expressing NDM-1 (CLB 30016) MITC95 [4, 21]: 4.688 µM; Klebsiella pneumoniae expressing VIM-1 (IHMA 599644) MITC95 [5, 21]: 150 µM; Serratia marcescens expressing IMP-1 (CL5741) MITC95 [6, 21]: 12.5 µM |
